Results on two compounds are retold here after US20130165641A1, “6,11-BRIDGED BIARYL MACROLIDES” (Enanta Pharmaceuticals, Inc., priority 2007, published 2013).

As usually defined, the ED50 is the dose that gives a 50% effect, or the effect in half of the subjects. Low readings indicate an effect at a small dose, high ones a need for a large dose.

The nature of data set [1]: Rat PK of amino acid prodrug after IV/PO administration. Type of data set: in vivo. The note with it: plasma, 10 mg/kg IV, prodrug itself, read-out: AUC0-∝.
The nature of data set [2]: Animal model of infection of Compound 4: MPT, ED50. Format: in vivo, mice. Conditions: Mus musculus, MPT (mouse protection test model).
The nature of data set [3]: Animal model of infection of Compound 4: RLI, 2Log Red. Format: in vivo, rats. The note with it: RLI (rat lung infection model), ED50.

Consider `CCC(=O)/N=C1\[C@H](C)C[C@@]2(C)OC/C(=N/OCc3ccc(-c4nc(NC(=O)[C@@H](N)CC(C)C)cs4)cn3)CO[C@H]([C@H]1C)[C@](C)(O)[C@@H](CC)OC(=O)[C@@](C)(F)C(=O)[C@H](C)[C@H]2O[C@@H]1O[C@H](C)C[C@H](N(C)C)[C@H]1O` [Compounds 6], for which the AUC in data set [1] was 210 ng·h/mL.
Regarding `CC[C@H]1OC(=O)[C@H](C)C(=O)[C@H](C)[C@@H](O[C@@H]2O[C@H](C)C[C@H](N(C)C)[C@H]2O)[C@](C)(OC)C[C@@H](C)C(=O)[C@H](C)[C@H]2N(CCCCn3cnc(-c4cccnc4)c3)C(=O)O[C@]12C` [Telithromycin, telithromycin], the ED50 amounted to 11 mg/kg in data set [2] (S. aureus Smith) and 10 mg/kg in data set [2] (S. pneumoniae 7701). The figures for the “2Log Red” value in data set [3] (H. influenzae 1435), in data set [3] (H. influenzae 3643) and in data set [3] (H. influenzae S1280) were 49 mg/kg, 78 mg/kg and 56 mg/kg, respectively.
